The values that follow come from patent publication US20130109721A1, “FAAH Inhibitors” (Ironwood Pharmaceuticals, Inc., priority 2009, published 2013).

In general, IC50 refers to the point on the concentration scale where inhibition reaches its midpoint.

This test has as its target T1, FAAH (Homo sapiens, UniProt O00519).
T1 construct: FAAH activity was assayed in the respective homogenates described herein (Rat brain, Mouse brain or Human brain); tissue Analytical Biological Services (ABS), Inc; host or cells: human brain cortex membrane homogenate
T1 sequence (O00519 1-579): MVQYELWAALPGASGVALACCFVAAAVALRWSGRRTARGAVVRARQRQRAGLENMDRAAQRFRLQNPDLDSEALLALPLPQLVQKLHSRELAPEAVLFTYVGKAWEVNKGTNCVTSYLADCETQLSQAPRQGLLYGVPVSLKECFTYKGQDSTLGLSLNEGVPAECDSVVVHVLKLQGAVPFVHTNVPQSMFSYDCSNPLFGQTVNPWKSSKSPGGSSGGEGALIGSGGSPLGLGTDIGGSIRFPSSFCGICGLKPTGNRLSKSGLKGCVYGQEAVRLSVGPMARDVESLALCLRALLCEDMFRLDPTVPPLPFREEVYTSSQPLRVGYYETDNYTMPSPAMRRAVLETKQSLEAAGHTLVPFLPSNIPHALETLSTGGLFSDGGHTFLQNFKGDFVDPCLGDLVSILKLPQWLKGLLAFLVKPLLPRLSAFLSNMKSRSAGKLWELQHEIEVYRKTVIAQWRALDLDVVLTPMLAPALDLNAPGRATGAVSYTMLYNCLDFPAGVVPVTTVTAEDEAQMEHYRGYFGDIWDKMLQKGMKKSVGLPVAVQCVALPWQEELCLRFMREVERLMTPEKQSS
Put plainly: FAAH inhibition, human brain membrane homogenate assay. The class given is biochemical. The note with it: average; FAAH extracted from human brain homogenate; read-out: Human brain FAAH Extract IC50. As to the method:
About 10 g of frozen normal human brain cortex tissue was obtained (e.g., from Analytical Biological Services (ABS), Inc. (Wilmington, Del.)). The brain tissue was thawed and transferred to a large ceramic mortar on ice. 50 mL of ice-cold “homogenization buffer” (20 mM HEPES buffer, pH 7.0, with 1 mM MgCl2) was added to the mortar and the tissue was homogenized with a pestle. The homogenate was centrifuged at 36,500 g for 20 minutes at 4° C. The supernatants were discarded and the pellets were re-suspended in homogenization buffer and centrifuged as before. The supernatants were again discarded and the pellets were re-suspended in 30 mL homogenization buffer and incubated in a 37° C. water bath for 20 minutes. The homogenate was then centrifuged as before. The supernatant was discarded and the membrane pellets were re-suspended in 30 mL “resuspension buffer” (50 mM Tris-HCl buffer, pH 7.4, containing 1 mM EDTA and 3 mM MgCl2). A Bradford Protein assay was performed to determine protein concentration. The protein was aliquotted into screw cap Cryo tubes each containing ˜200 μL, flash frozen in liquid nitrogen and stored at −80° C. until used for the assay.
FAAH activity was assayed in the respective homogenates described herein (Rat brain, Mouse brain or Human brain) for certain exemplary substrate compounds using a modification of the method of Omeir et al. (1995 Life Sci 56:1999) and Fowler et al. (1997 J. Pharmacol Exp Ther 283:729). For assay of FAAH activity in rat brain membrane (RBM) homogenates, RBM homogenates (7 μg protein in 20 μL final volume of 10 mM Tris pH 6.5) were mixed with 180 μL of a mixture of the following: 2.0 μM unlabelled anandamide, 0.03 μCi radio labeled anandamide [ethanolamine 1-^3H] (40-60 Cis/mmol, product number ART-626, American Radiolabeled Chemicals, St. Louis, Mo.), 1 mg/mL Bovine Serum Albumin (fatty acid-free BSA, electrophoresis grade, Sigma, St. Louis, Mo.), 10 mM Tris-HCl (pH 6.5), and 1 mM EDTA in the presence and absence of test compounds (vehicle was DMSO at a final concentration of 1%) and incubated for 10 minutes at 37° C. Samples were placed on ice to terminate the reactions.
^3H-ethanolamine product and un-reacted ^3H-anandamide substrate were then separated either: (1) by using chloroform/methanol extraction or (2) by passing the reaction mixture through a glass fiber filter containing activated charcoal. Samples were extracted with chloroform/methanol by adding 0.4 mL of chloroform/methanol (1:1 v/v), vigorously mixing the samples, and separating the aqueous and organic phases by centrifugation. Radioactivity (corresponding to FAAH-catalyzed breakdown of ^3H-anandamide) found in aliquots (0.2 mL) of the aqueous phase was determined by liquid scintillation counting with quench correction. IC50 values were determined as described by Jonsson et al. (2001 Br. J. Pharmacol. 133:1263). Alternatively, reactions were purified using a modification of the solid-phase extraction method described by Wilson et al (2003 Anal. Biochem. 318:270). This method was modified as follows: after reactions were incubated at 37° C. for 10 minutes and chilled on ice, the reaction mixtures were acidified by adding 10 μL of sodium phosphate solution [0.5M (pH 2.0)]. Next, 90 μL aliquots of the acidified reaction mixtures were applied to activated charcoal (that had been previously washed with methanol as described by Wilson et al. (supra)) containing 80 μL of water on top of a glass fiber filter, centrifuged, and the radioactivity in the eluate was counted as described previously by Wilson et al. (supra).
Table 1 provides activity data for certain compounds tested for inhibition of FAAH using the FAAH rat, mouse and human brain homogenate assays. […]

A value given as a limit tells only on which side of the number the result lay.

In the case of `Cc1c(C(=O)C(=O)Nc2cccc(Cl)c2)c2ccsc2n1Cc1ccc(Cl)cc1` [Compound I-08, 2-(6-(4-chlorobenzyl)-5-methyl-6H-thieno[2,3-b]pyrrol-4-yl)-N-(3-chlorophenyl)-2-oxoacetamide], the IC50 was 797 nM.

For `COc1cc(NC(=O)C(=O)c2c(C)n(Cc3ccc(Cl)cc3)c3sccc23)ccn1` [Compound I-09, 2-(6-(4-chlorobenzyl)-5-methyl-6H-thieno[2,3-b]pyrrol-4-yl)-N-(2-methoxypyridin-4-yl)-2-oxoacetamide], the IC50 was determined as 31 nM.

In the case of `Cc1c(C(=O)C(=O)Nc2cccc(Cl)c2)c2c(n1Cc1ccc(Cl)cc1)CCCCCC2` [Compound I-10, 2-(1-(4-chlorobenzyl)-2-methyl-4,5,6,7,8,9-hexahydro-1H-cycloocta[b]pyrrol-3-yl)-N-(3-chlorophenyl)-2-oxoacetamide], the IC50 is 605 nM.

Turning to `COc1cc(NC(=O)C(=O)c2c3c(n(Cc4ccc(Cl)cc4)c2C)CCCCCC3)ccn1` [Compound I-11, 2-(1-(4-chlorobenzyl)-2-methyl-4,5,6,7,8,9-hexahydro-1H-cycloocta[b]pyrrol-3-yl)-N-(2-methoxypyridin-4-yl)-2-oxoacetamide], the IC50 was determined as 80 nM.

`Cc1c(C(=O)C(=O)Nc2cccc(Cl)c2)c2c(n1Cc1ccc(Cl)cc1)CCCCC2` [Compound I-12, 2-(1-(4-chlorobenzyl)-2-methyl-1,4,5,6,7,8-hexahydrocyclohepta[b]pyrrol-3-yl)-N-(3-chlorophenyl)-2-oxoacetamide]: the IC50 came to 234 nM.

As for `COc1cc(NC(=O)C(=O)c2c3c(n(Cc4ccc(Cl)cc4)c2C)CCCCC3)ccn1` [Compound I-13, 2-(1-(4-chlorobenzyl)-2-methyl-1,4,5,6,7,8-hexahydrocyclohepta[b]pyrrol-3-yl)-N-(2-methoxypyridin-4-yl)-2-oxoacetamide], the IC50 is 9 nM.

In the case of `Cc1c(C(=O)C(=O)Nc2cccc(Cl)c2)c2c(n1Cc1ccc(Cl)cc1)CCC(C)(C)C2` [Compound I-14, 2-(1-(4-chlorobenzyl)-2,5,5-trimethyl-4,5,6,7-tetrahydro-1H-indol-3-yl)-N-(3-chlorophenyl)-2-oxoacetamide], the IC50 was 202 nM.

On to `COc1cc(NC(=O)C(=O)c2c3c(n(Cc4ccc(Cl)cc4)c2C)CCC(C)(C)C3)ccn1` [Compound I-15, 2-(1-(4-chlorobenzyl)-2,5,5-trimethyl-4,5,6,7-tetrahydro-1H-indol-3-yl)-N-(2-methoxypyridin-4-yl)-2-oxoacetamide], for which the IC50 worked out at 94 nM.

`Cc1c(C(=O)C(=O)Nc2cccc(Cl)c2)c2c(n1Cc1ccc(Cl)cc1)CCCC2` [Compound I-16, 2-(1-(4-chlorobenzyl)-2-methyl-4,5,6,7-tetrahydro-1H-indol-3-yl)-N-(3-chlorophenyl)-2-oxoacetamide]: the IC50 was determined as 119 nM.

`COc1cc(NC(=O)C(=O)c2c3c(n(Cc4ccc(Cl)cc4)c2C)CCCC3)ccn1` [Compound I-18, 2-(1-(4-chlorobenzyl)-2-methyl-4,5,6,7-tetrahydro-1H-indol-3-yl)-N-(2-methoxypyridin-4-yl)-2-oxoacetamide]: the IC50 amounted to 21 nM.

For the compound `COc1cc(NC(=O)C(=O)c2c(-c3ccccc3)c(C)n(Cc3ccc(Cl)cc3)c2C)ccn1` [Compound I-19, 2-(1-(4-chlorobenzyl)-2,5-dimethyl-4-phenyl-1H-pyrrol-3-yl)-N-(2-methoxypyridin-4-yl)-2-oxoacetamide], the concentration for half-maximal inhibition (IC50) is over 5000 nM.

For the compound `Cc1c(C(=O)C(=O)Nc2cccc(Cl)c2)c(-c2ccccc2)c(C)n1Cc1ccc(Cl)cc1` [Compound I-20, 2-(1-(4-chlorobenzyl)-2,5-dimethyl-4-phenyl-1H-pyrrol-3-yl)-N-(3-chlorophenyl)-2-oxoacetamide], the IC50 is over 5000 nM.

Turning to `COc1cc(NC(=O)C(=O)c2cc(C)n(Cc3ccc(Cl)cc3Cl)c2C)ccn1` [Compound I-21, 2-(1-(2,4-dichlorobenzyl)-2,5-dimethyl-1H-pyrrol-3-yl)-N-(2-methoxypyridin-4-yl)-2-oxoacetamide], the half-maximal inhibitory concentration (IC50) stood at 1010 nM.

As to `COc1ccc(Cn2c(C)cc(C(=O)C(=O)Nc3ccnc(OC)c3)c2C)cc1` [Compound I-22, 2-(1-(4-methoxybenzyl)-2,5-dimethyl-1H-pyrrol-3-yl)-N-(2-methoxypyridin-4-yl)-2-oxoacetamide], the IC50 is 4110 nM.

`COc1cc(NC(=O)C(=O)c2cc(C)n(Cc3ccc(Cl)cc3)c2-c2ccccc2)ccn1` [Compound I-23, 2-(1-(4-chlorobenzyl)-5-methyl-2-phenyl-1H-pyrrol-3-yl)-N-(2-methoxypyridin-4-yl)-2-oxoacetamide]: the concentration for half-maximal inhibition (IC50) was 2560 nM.

Regarding `Cc1cc(C(=O)C(=O)Nc2cccc(Cl)c2)c(-c2ccccc2)n1Cc1ccc(Cl)cc1` [Compound I-24, 2-(1-(4-chlorobenzyl)-5-methyl-2-phenyl-1H-pyrrol-3-yl)-N-(3-chlorophenyl)-2-oxoacetamide], the 50% inhibitory concentration (IC50) is over 50000 nM.

As for `Cc1c(C(=O)C(=O)Nc2cccc(Cl)c2)cc(-c2ccccc2)n1Cc1ccc(Cl)cc1` [Compound I-25, 2-(1-(4-chlorobenzyl)-2-methyl-5-phenyl-1H-pyrrol-3-yl)-N-(3-chlorophenyl)-2-oxoacetamide], the IC50 is over 50000 nM.

On to `Cc1c(C(=O)C(=O)Nc2ccncc2)cc(-c2ccccc2)n1Cc1ccc(Cl)cc1` [Compound I-26, 2-(1-(4-chlorobenzyl)-2-methyl-5-phenyl-1H-pyrrol-3-yl)-2-oxo-N-(pyridin-4-yl)acetamide], for which the IC50 was over 50000 nM.
